How the values were obtained:
[1] = tested on: HCC827 cells; assay: Proliferation assay (resazurin / AlamarBlue readout) in HCC827 cells; type: cell-based; settings: single agent, up to 1 μM
Experimental: A DMSO-only control was included. […] Recombinant human HGF (PeproTech, catalogue number 100-39) was added together with compounds at a constant concentration as indicated in the respective experiments. Cells were incubated for 72 to 96 h and the amount of viable cells was then assessed using a resazurin sodium salt dye reduction readout (commercially known as AlamarBlue® assay, Invitrogen, Life Technologies Corporation, Grand Island, N.Y., USA). Values were normalized and plotted as either “% of control” with the DMSO control set to 100%, or as “fold seeded cells”. In this case a resazurin readout of separate wells with untreated cells was obtained 24 h after seeding in order to determine a “seeded cells” value for normalization. Plotting of the data and curve-fitting were done with GraphPad Prism version 5.00 for Windows (GraphPad Software, Inc., La Jolla, Calif., USA).

[2] = tested on: HCC827 GR cells; assay: Proliferation assay (resazurin / AlamarBlue readout) in gefitinib-resistant HCC827 GR cells; type: cell-based; settings: monotherapy
Experimental: 24 h later, a 10-point dilution series of each compound was prepared in DMSO. […] A DMSO-only control was included. […] Recombinant human HGF (PeproTech, catalogue number 100-39) was added together with compounds at a constant concentration as indicated in the respective experiments. Cells were incubated for 72 to 96 h and the amount of viable cells was then assessed using a resazurin sodium salt dye reduction readout (commercially known as AlamarBlue® assay, Invitrogen, Life Technologies Corporation, Grand Island, N.Y., USA). Values were normalized and plotted as either “% of control” with the DMSO control set to 100%, or as “fold seeded cells”. In this case a resazurin readout of separate wells with untreated cells was obtained 24 h after seeding in order to determine a “seeded cells” value for normalization.

[3] = tested on: HCC827GR5 subcutaneous xenografts; assay: Efficacy experiments in mice bearing HCC827GR5 subcutaneous xenografts; type: in vivo; settings: for antitumor effect as single agent: Discussion; for antitumor effect as single agent / regressions / Delta tumor volume: MET inhibitor 3 mg/kg, gefitinib 25 mg/kg; for regressions: orally once a day; for regressions / T/C: 13 days; for T/C: gefitinib 25 mg/kg orally once a day
Experimental: Experiments were performed in female Hsd: Athymic nude-nu CPB mice obtained from Harlan Winkelmann, Germany. Animally were approximately 11 weeks of age at treatment start and housed under Optimized Hygienic Conditions (OHC) in Macrolon type III cages (max. 5 animals per cage) with free access to food and water.
Cell line identity has been confirmed by SNP genotyping. Cells were grown in RPMI 1640 medium (Amimed #1-41F01-1) supplemented with 10% heat inactivated FCS, (Amimed #2-01F16-1), 2 mM L-glutamine (Amimed #5-10K00-H), 1 mM sodium pyruvate (Amimed #5-60F00-H) and 10 mM HEPES (Gibco #15630). […]. Cells were incubated at 37° C. in a humidified atmosphere with 5% CO2.
HCC827GR5 tumors were established by subcutaneous injection of 5×10^6 cells in 115 μl HBSS (Hank's buffered salt solution) containing 50% Matrigel (v/v) (gelatinous protein mixture secreted by Engelbreth-Holm-Swarm (EHS) mouse sarcoma cells, BD Biosciences, Franklin Lakes, N.J., USA) into the right flank of mice, with a 13 gauge trocar needle under Forene® (Isofluran; Abott, Switzerland) anesthesia. In the efficacy experiments, treatments started when the tumors reached an average size of 150 mm^3, 11 days post tumor implantation. In the PK/PD experiment, treatments were started when the mean tumor size was 450 mm^3, 15 days post tumor implantation.
The application volumes were 10 ml/kg for the single agents and for the vehicle control group or 5 ml/kg when the test compounds were given in combination. All indicated doses refer to free base equivalent of 2-Fluoro-N-methyl-4-[(7-quinolin-6-yl-methyl)-imidazo[1,2-b]triazin-2-yl]benzamide (dihydrochloride salt). […].
Tumor volumes were measured with calipers and determined according to the formula length×diameter^2×π/6. In addition to presenting changed of tumor volumes over the course of treatments, antitumor activity is expressed as T/C % ((mean change of tumor volume of treated animals/mean change of tumor volume of control animals)×100). Regressions (%) were calculated according to the formula ((mean tumor volume at end of treatment−mean tumor volume at start of treatment)/mean tumor volume at start of treatment)×100. Body weights and tumor volumes were recorded twice a week.
Statistics: Were applicable, data is presented as mean±SEM. For all tests, the level of significance was set at p<0.05. For tumor volumes, comparisons between treatment groups and vehicle control group were done using one-way ANOVA followed by Dunnett's test. Pairwise comparisons were done using a one way ANOVA followed by Tukey's test. The level of significance of body weight change within a group between the start and the end of the treatment period was determined using a paired t-test. Comparisons of delta body weighs between treatment and vehicle control groups were performed by a one-way ANOVA followed by a post hoc Dunnett's test. Calculations were performed using GraphPad Prism 4 for Windows (GraphPad Software Inc.). In addition, an approximation of drug interactions was made using the method described by Clarke (Clarke R., Breast Cancer Research and Treatment 46, 255-278 (1997)). This was applied to delta tumor volumes and can estimate interactions from limited data. In short, the combination data was assessed using the method presented by Clarke which can estimate interactions from limited data. For compound A, B or the combination AB (with control group C), antagonism is predicted when the calculation AB/C>A/C×B/C, additive effect: AB/C=A/C×B/C, synergistic interactions are predicted to occur when AB/C<A/C×B/C.
The body weight increase was statistically significant in all groups excepted the combination group (p<0.05, paired t-test).

[4] = tested on: HCC827GR5 subcutaneous xenografts; assay: Follow-up of HCC827GR5 xenografts after treatment discontinuation or extension; type: in vivo, mice; settings: 4 animals
Experimental: FIG. 5: Graphic representation of the change of tumor volumes over time after treatment discontinuation in mice (in vivo) as described in more detail in the Examples. […] Treatments started 11 days post tumor cells implantation and lasted 13 consecutive days. […] Four animals were kept under observation, without any treatment (left panel) while the two other groups of 4 animals each were kept under daily treatment as before (right panel). Tumor volumes and body weights were recorded only once a week. Horizontal lines are set at 100 and 500 mm^3 tumor volumes.
[…]. Treatments started 11 days post tumor cells implantation and lasted 13 consecutive days. […] Four animals were kept under observation, without any treatment (left panel) while the two other groups of 4 animals each were kept under daily treatment as before (right panel). Tumor volumes and body weights were recorded only once a week. Horizontal lines are set at 100 and 500 mm^3 tumor volumes, respectively. […] […]. The tumors in the animals that received the combination therapy continued to regress from a mean volume of 33+/−1.3 to 26.3+/−2.8 mm^3 (representing a mean of 89.2% regression from the initial volume).

[5] = tested on: c-MET-driven or HGF/c-MET-driven xenograft; assay: c-MET-driven or HGF/c-MET-driven xenograft mouse tumor models; type: in vivo; settings: oral dosing
From the text: […]. […] […]. […] Importantly, cell lines with simultaneous HGF and c-MET expression are also relatively resistant to EGFR inhibitors compared to cell lines with similar c-MET level that lack HGF expression.

CNC(=O)c1ccc(-c2cnc3ncc(Cc4ccc5ncccc5c4)n3n2)cc1F [2-fluoro-N-methyl-4-[(7-quinolin-6-yl-methyl)-imidazo[1,2-b]triazin-2-yl]benzamide]
effect on proliferation of the HCC827 cells [1]: did not show any substantial effect | effect of single agent on proliferation of HCC827 GR cells [2]: modest | antitumor effect as single agent [3]: slight statistically significant tumor regressions | regressions ([3]; first experiment (FIG. 3)): 22.9% | Delta tumor volume ([3]; first experiment, Table 1): −60.2 | regressions ([3]; second experiment (FIG. 4)): 21.4% | Delta tumor volume ([3]; second experiment, Table 2): −55.7 | tumor volume, mean+/−SEM, after treatment discontinuation ([4]; no treatment after day 24 (FIG. 5 left graph)): 516+/−112 mm^3 | tumor volume, mean, under extended daily treatment ([4]; treatment continued after day 24 (FIG. 5 right panel)): 400+/−80 mm^3 | in vivo activity in blocking c-MET phosphorylation and tumor growth [5]: significant in vivo activity

COc1cc2ncnc(Nc3ccc(F)c(Cl)c3)c2cc1OCCCN1CCOCC1 [gefitinib, N-(3-hloro-4-fluorophenyl)-7-methoxy-6-[3-(morpholin-4-yl)propoxy]quinazolin-4-amine, reference compound]
antitumor effect as single agent [3]: statistically significant antitumor effects, but never regressions | T/C ([3]; first experiment (FIG. 3)): 32.5% | Delta tumor volume ([3]; first experiment, Table 1): 173.1 | T/C ([3]; second experiment (FIG. 4)): 49.4% | Delta tumor volume ([3]; second experiment, Table 2): 261
